pEC50: −log10 of the molar value.
Target: Cannabinoid receptor 1 (Homo sapiens, UniProt P21554)
Sequence (P21554 whole entry): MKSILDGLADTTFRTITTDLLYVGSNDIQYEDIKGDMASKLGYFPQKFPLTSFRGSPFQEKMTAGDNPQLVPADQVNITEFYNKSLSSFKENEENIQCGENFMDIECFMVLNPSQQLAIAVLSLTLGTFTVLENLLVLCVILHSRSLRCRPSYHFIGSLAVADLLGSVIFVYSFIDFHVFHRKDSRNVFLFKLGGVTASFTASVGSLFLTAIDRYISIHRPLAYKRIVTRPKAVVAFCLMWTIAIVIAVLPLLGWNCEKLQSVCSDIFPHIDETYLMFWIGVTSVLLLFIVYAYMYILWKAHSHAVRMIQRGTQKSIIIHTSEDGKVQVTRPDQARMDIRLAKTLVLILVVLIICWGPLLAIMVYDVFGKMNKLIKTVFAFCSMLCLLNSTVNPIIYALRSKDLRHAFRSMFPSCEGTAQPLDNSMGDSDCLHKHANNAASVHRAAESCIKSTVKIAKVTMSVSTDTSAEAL

## CC(=O)N[C@H]1CCN(c2nc(O[C@@H](C)C(F)(F)F)nc3c2nnn3Cc2ccccc2C(F)(F)F)C1 [US9593123, Example 81]
  pEC50: < 5.00

— BindingDB's records for patent US9593123 (Hoffmann-La Roche, 2017)
